According to patent US20160346255A1, “METHODS, AGENTS AND COMPOSITIONS FOR TREATMENT OF INFLAMMATORY CONDITIONS” (Betanien Hospital, priority 2014, published 2016):
Non-standard residues stand in square brackets, D forms with d. Residues, ends and D or L forms follow the SMILES beside them. *: point of attachment. dPhe(4-NHCONH2) = NC(=O)Nc1ccc(C[C@@H](N)C(=O)O)cc1; Dihydroorotyl(S) = O=C1C[C@@H](C(=O)*)NC(=O)N1; dPhe(4-Cl) = N[C@H](Cc1ccc(Cl)cc1)C(=O)O; Phe(4-NH2) = Nc1ccc(C[C@H](N)C(=O)O)cc1; d2Nal = N[C@H](Cc1ccc2ccccc2c1)C(=O)O; Lys(iPr) = CC(C)NCCCC[C@H](N)C(=O)O; d3Pal = N[C@H](Cc1cccnc1)C(=O)O

How the values were obtained:
[1] = system: Patient with Inflammatory Bowel Disease; experiment: Inflammatory bowel disease (colitis) patient treated with degarelix; assay type: in vivo, human
Procedure: • person, diagnosed with colitis • Inflammatory bowel disease, colitis verified on colonic biopsy sample. Patients with inflammatory colitis usually have a higher incidence of autoimmune diseases. This patient also had ankylosing spondylitis. • September 2014 received first dose of degarelix 240 mg s.c. • Received degarelix 80 mg s.c. approximately every two weeks thereafter. • The inflammatory bowel diseases (IBDs), Crohn's disease and ulcerative colitis, are chronic relapsing, remitting disorders. The assessment of disease activity presents challenges to clinicians. Fecal biomarkers, such as fecal calprotectin, are a non-invasive method which can be used to aid managing clinicians. Calprotectin is released extracellularly in times of cell stress or damage and can be detected within feces and thus be used as a sensitive marker of intestinal inflammation. […] Fecal calprotectin levels are elevated in patients with both Crohn's disease and ulcerative colitis (1-2). There have been several studies looking at the use of fecal calprotectin to predict or monitor response to treatment. • In a study looking at 11 patients with relapsing IBD, fecal calprotectin was analysed at inclusion and after 8 weeks of treatment. Treatment was individualized medical therapy. A normalized fecal calprotectin concentration at 8 weeks predicted a complete response in 100% of patients (3), corresponding to endoscopic mucosal healing (4). It has been shown that in patients with steroid induced clinical remission fecal calprotectin levels can remain elevated (5-6). […] A level of <50 mg/kg is considered normal or remission for IBD. • There is no gold standard index in the measurement of colitis disease activity in clinical trials. Due to the invasive nature of endoscopies, the Mayo non-invasive colitis assessment of response score can be used to assess treatment effect of IBD in clinical trials (9-11). […] Both the partial Mayo and total Mayo score are used to assess disease activity in clinical trials (13). The partial Mayo score also had good discriminatory value between subjects in remission and those with active disease (14). A clinical response has been defined as a 3 point or greater change in the partial Mayo score (15).

[2] = system: Patient with Ankylosing Spondylitis; experiment: Ankylosing spondylitis patient treated with degarelix (and earlier TNF inhibitors); assay type: in vivo, human; conditions: for Glomerular filtration rate (>60): 10 Sep. 2014 56; for Creatinine (60-105 μmol/L): 10 Sep. 2014 112; for Urate (230-480 μmol/L): 10 Sep. 2014 515; for CRP: 10 Sep. 2014 <5; for BASDAI: baseline 8.7
From the text: Example of Treating a Patient with Ankylosing Spondylitis with a GnRH Antagonist
Diagnosed with ankylosing spondylitis in 1984, HLAB27 positive, with repeated iridocyclitis. Used non-steroidal anti-inflammatory drugs previously. They were offered the TNFα inhibitor Golilimumab in 2010. Their disease activity score was 8.9 in October 2010 (see below for explanation of disease activity score) on initiating Golilimumab; by the June 2012 this score had reduced to 6.6, but by May 2013 the effect had worn off and their score was 7.6. May 2013, they initiated Enbrel treatment, but their disease activity increased from 7.6 to 8.3. Due to their poor response to TNFα therapy, they were offered the GnRH antagonist degarelix in September 2014.
Disease activity in ankylosing spondylitis is measured by the BASDAI (Bath Ankylosing Spondylitis Disease Activity Index (1)), which has been extensively validated in clinical trials, 2, 3 and is one of the most commonly used outcome measures in clinical trials. This is a composite index that evaluates fatigue, axial and peripheral pain, stiffness and enthesopathy. Their BASDAI was at 8.7 at baseline. In September 2014 they received their first dose of degarelix 240 mg s.c. By 2 weeks, their BASDAI had reduced to 6.8, and by 6 weeks it had reduced to 5.8. This is the lowest BASDAI score they have ever had since we first started using this method of assessment 4 years ago in 2010. Their morning stiffness lasted 4 hours at baseline, by 6 weeks their morning stiffness had reduced to 2 hours. They had their second dose of degarelix 80 mg s.c in October 2014. Lumbar flexion and maximum arm abduction were increased after 6 weeks of treatment.
Response to therapy in clinical practice is defined as improvement of 2 units or 50% on a 0-10 scale of the BASDAI, and expert opinion that the treatment should be continued. Their reduction by 6 weeks was 2.9 units, and 7.1 units with an 82% BASDAI score improvement by 9 weeks, and we shall continue treatment. A BASDAI 50% improvement is defined as a major clinical response. […] For comparison, approximately 50-60% of patients achieve a BASDAI 50 by 12 weeks on TNF inhibitors (4). Their ESR has decreased from 46 mm to 23 mm, which is their lowest ESR reading in 19 years. […] By 9 weeks of GnRH antagonist therapy, their kidney function has normalized, and fasting glucose reduced from 7.4 to 6.5 mmol/L. By 3 months, the effect on their ankylosing spondylitis remained, creatinine was at 98 μmol/L, with a glomerular filtration rate of 66 ml/min/1.73 m^2 in December 2014.

[3] = ankylosing spondylitis patient, after 6 weeks
[4] = ankylosing spondylitis patient, by 3 months, December 2014
[5] = ankylosing spondylitis patient, by 6 weeks
[6] = ankylosing spondylitis patient, by 9 weeks

CC(=O)N[C@H](Cc1ccc2ccccc2c1)C(=O)N[C@H](Cc1ccc(Cl)cc1)C(=O)N[C@H](Cc1cccnc1)C(=O)N[C@@H](CO)C(=O)N[C@@H](Cc1ccc(NC(=O)[C@@H]2CC(=O)NC(=O)N2)cc1)C(=O)N[C@H](Cc1ccc(NC(N)=O)cc1)C(=O)N[C@@H](CC(C)C)C(=O)N[C@@H](CCCCNC(C)C)C(=O)N1CCC[C@H]1C(=O)N[C@H](C)C(N)=O [degarelix] (Ac-[d2Nal][dPhe(4-Cl)][d3Pal]S[Phe(4-NH2)](Dihydroorotyl(S))[dPhe(4-NHCONH2)]L[Lys(iPr)]P[dA]-NH2)
Fecal calprotectin (<50 normal) ([1]; 2 Oct. 2014, normal): 48, normal mg/kg | Fecal calprotectin (<50 normal) ([1]; 10 Jan. 2015, normal): 32, normal mg/kg | Fecal calprotectin (<50 normal) ([1]; 24 Sep. 2014 (started 10.09.14), high): 79, high mg/kg | Partial Mayo score ([1]; at 12 weeks, baseline 3): 0 | Glucose fasting (4.0-6.0 mmol/L) ([2]; 10 Nov. 2014 (9 weeks), 10 Sep. 2014 7.4): 6.5 mmol/L | Glomerular filtration rate (>60) ([2]; 10 Nov. 2014): 65 ml/min/1.73 m^2 | Creatinine (60-105 μmol/L) ([2]; 10 Nov. 2014): 99 µmol/L | Urate (230-480 μmol/L) ([2]; 10 Nov. 2014): 426 µmol/L | CRP ([2]; 10 Nov. 2014): <5 | Glomerular filtration rate (>60) ([2]; 24 Sep. 2014): 55↓ ml/min/1.73 m^2 | Creatinine (60-105 μmol/L) ([2]; 24 Sep. 2014): 114↑ μmol/L | Urate (230-480 μmol/L) ([2]; 24 Sep. 2014): 512↑ μmol/L | ESR (<20 mm) ([2]; 24 Sep. 2014, 10 Sep. 2014 (start) 46): 31↑ mm | CRP ([2]; 24 Sep. 2014): <5 | ESR (<20 mm) ([2]; 27 Oct. 2014, 10 Sep. 2014 46): 28↑ mm | Glomerular filtration rate (>60) ([2]; 27 Oct. 2014): 56↓ ml/min/1.73 m^2 | Creatinine (60-105 μmol/L) ([2]; 27 Oct. 2014): 111↑ μmol/L | Urate (230-480 μmol/L) ([2]; 27 Oct. 2014): 495↑ μmol/L | CRP ([2]; 27 Oct. 2014): <5 | Lumbar flexion [2, 3]: increased | Maximum arm abduction [2, 3]: increased | ASAS response achieved ([2]; ankylosing spondylitis patient, at least 80% improvement): ASAS 80 | BASDAI ([2]; ankylosing spondylitis patient, by 2 weeks): 6.8 | Creatinine [2, 4]: 98 µmol/L | Glomerular filtration rate [2, 4]: 66 ml/min/1.73 m^2 | BASDAI reduction [2, 5]: 2.9 units | BASDAI [2, 5]: 5.8 | Morning stiffness ([2]; ankylosing spondylitis patient, by 6 weeks, baseline 4 hours): 2 h | BASDAI reduction [2, 6]: 7.1 units | BASDAI score improvement [2, 6]: 82% | Kidney function [2, 6]: normalized
